≈ marks a conversion by molar mass, not a printed value.
Tests used:
Staphylococcus aureus [1] = experiment: Antibacterial activity against methicillin-resistant Staphylococcus aureus isolate 10 after 24 hrs by broth microdilution method; type: functional; details: isolate 10, 24 h
Vero = experiment: Cytotoxicity against African green monkey Vero cells assessed as inhibition of cell growth after 72 hrs by MTT assay; type: cell-based; details: Chlorocebus sabaeus
Staphylococcus aureus [2] = experiment: Antibacterial activity against methicillin-resistant Staphylococcus aureus isolate 7 after 24 hrs by broth microdilution method; type: functional; details: isolate 7, 24 h
Staphylococcus aureus [3] = experiment: Antibacterial activity against methicillin-resistant Staphylococcus aureus isolate 4 after 24 hrs by broth microdilution method; type: functional; details: isolate 4, 24 h
Staphylococcus aureus [4] = experiment: Antibacterial activity against methicillin-resistant Staphylococcus aureus isolate 11 after 24 hrs by broth microdilution method; type: functional; details: isolate 11, 24 h
Staphylococcus aureus [5] = experiment: Antibacterial activity against methicillin-resistant Staphylococcus aureus isolate 1 after 24 hrs by broth microdilution method; type: functional; details: isolate 1, 24 h
Staphylococcus aureus [6] = experiment: Antibacterial activity against methicillin-resistant Staphylococcus aureus isolate 9 after 24 hrs by broth microdilution method; type: functional; details: isolate 9, 24 h
Staphylococcus aureus [7] = experiment: Antibacterial activity against methicillin-resistant Staphylococcus aureus isolate 3 after 24 hrs by broth microdilution method; type: functional; details: isolate 3, 24 h
Staphylococcus aureus [8] = experiment: Antibacterial activity against methicillin-resistant Staphylococcus aureus isolate 2 after 24 hrs by broth microdilution method; type: functional; details: isolate 2, 24 h
Staphylococcus aureus [9] = experiment: Antibacterial activity against methicillin-resistant Staphylococcus aureus isolate 5 after 24 hrs by broth microdilution method; type: functional; details: isolate 5, 24 h
Staphylococcus aureus [10] = experiment: Antibacterial activity against methicillin-resistant Staphylococcus aureus isolate 8 after 24 hrs by broth microdilution method; type: functional; details: isolate 8, 24 h
Staphylococcus aureus [11] = experiment: Antibacterial activity against methicillin-resistant Staphylococcus aureus isolate 13 after 24 hrs by broth microdilution method; type: functional; details: isolate 13, 24 h
[12] = Cytotoxicity against african green monkey Vero cells assessed as cell death after 72 hrs by MTT assay; type: cell-based; details: chlorocebus sabaeus
Staphylococcus aureus [13] = experiment: Antibacterial activity against methicillin-resistant Staphylococcus aureus isolate 6 after 24 hrs by broth microdilution method; type: functional; details: isolate 6, 24 h
Staphylococcus aureus [14] = experiment: Antibacterial activity against methicillin-resistant Staphylococcus aureus isolate 14 after 24 hrs by broth microdilution method; type: functional; details: isolate 14, 24 h
Staphylococcus aureus [15] = experiment: Antibacterial activity against methicillin-resistant Staphylococcus aureus isolate 12 after 24 hrs by broth microdilution method; type: functional; details: isolate 12, 24 h
Staphylococcus aureus [16] = experiment: Selectivity index, Ratio of CC50 for african green monkey Vero cells to IC50 for Staphylococcus aureus
Staphylococcus aureus [17] = experiment: Antibacterial activity against methicillin-sensitive Staphylococcus aureus ATCC 25923 after 24 hrs by broth microdilution method; type: functional; details: ATCC 25923, 24 h
Staphylococcus aureus [18] = experiment: Antibacterial activity against methicillin-resistant Staphylococcus aureus isolate 5 at 30 ug after 24 hrs by disk diffusion assay; type: functional; details: isolate 5, 24 h, read-out: DIZ
Staphylococcus aureus [19] = experiment: Antibacterial activity against methicillin-resistant Staphylococcus aureus isolate 4 at 30 ug after 24 hrs by disk diffusion assay; type: functional; details: isolate 4, 24 h, read-out: DIZ

Row | SMILES | MIC (Staphylococcus aureus [1]) | IC50 (Vero) | MIC (Staphylococcus aureus [2]) | MIC (Staphylococcus aureus [3]) | MIC (Staphylococcus aureus [4]) | MIC (Staphylococcus aureus [5]) | MIC (Staphylococcus aureus [6]) | MIC (Staphylococcus aureus [7]) | MIC (Staphylococcus aureus [8]) | MIC (Staphylococcus aureus [9]) | MIC (Staphylococcus aureus [10]) | MIC (Staphylococcus aureus [11]) | CC50 at 72 h [12] | MIC (Staphylococcus aureus [13]) | MIC (Staphylococcus aureus [14]) | MIC (Staphylococcus aureus [15]) | Ratio CC50/IC50 (Staphylococcus aureus [16]) | MIC (Staphylococcus aureus [17]) | zone of inhibition at 30 µg/disc (Staphylococcus aureus [18]) | zone of inhibition at 30 µg/disc (Staphylococcus aureus [19])
1 | O=C(/C=C/c1ccc(O)cc1)c1ccc(O)cc1O [ISOLIQUIRITIGENIN] | 62.5 mg/L (≈ 244 µM) | 31.2 mg/L (≈ 122 µM) | 62.5 mg/L (≈ 244 µM) | 62.5 mg/L (≈ 244 µM) | 62.5 mg/L (≈ 244 µM) | 62.5 mg/L (≈ 244 µM) | 62.5 mg/L (≈ 244 µM) | 62.5 mg/L (≈ 244 µM) | 62.5 mg/L (≈ 244 µM) | 62.5 mg/L (≈ 244 µM) | 62.5 mg/L (≈ 244 µM) | 62.5 mg/L (≈ 244 µM) | 464 mg/L (≈ 1810 µM) | 62.5 mg/L (≈ 244 µM) | 62.5 mg/L (≈ 244 µM) | 62.5 mg/L (≈ 244 µM) | 14.8 | 31.2 mg/L (≈ 122 µM) |  | 
2 | O=C(CCc1ccc(O)cc1)c1c(O)cc(O)cc1O [PHLORETIN] | 250 mg/L (≈ 912 µM) | 125 mg/L (≈ 456 µM) | 250 mg/L (≈ 912 µM) | 250 mg/L (≈ 912 µM) | 250 mg/L (≈ 912 µM) | 250 mg/L (≈ 912 µM) | 250 mg/L (≈ 912 µM) | 250 mg/L (≈ 912 µM) | 250 mg/L (≈ 912 µM) | 250 mg/L (≈ 912 µM) | 250 mg/L (≈ 912 µM) | 250 mg/L (≈ 912 µM) | 735 mg/L (≈ 2680 µM) | 250 mg/L (≈ 912 µM) | 250 mg/L (≈ 912 µM) | 250 mg/L (≈ 912 µM) | 5.9 | 250 mg/L (≈ 912 µM) |  | 
3 | CC(C)=CCC/C(C)=C/Cc1c(O)ccc(C(=O)/C=C/c2ccc(O)c(CC=C(C)C)c2)c1O |  |  |  |  |  |  |  |  |  |  |  |  |  |  |  |  |  | 31.2 mg/L (≈ 67.7 µM) |  | 
4 | O=C(N/N=C/c1ccc([N+](=O)[O-])o1)c1ccccc1 | 15.6 mg/L (≈ 60.3 µM) | 7.81 mg/L (≈ 30.1 µM) | 125 mg/L (≈ 482 µM) | 15.6 mg/L (≈ 60.3 µM) | 125 mg/L (≈ 482 µM) | 125 mg/L (≈ 482 µM) | 125 mg/L (≈ 482 µM) | 62.5 mg/L (≈ 241 µM) | 62.5 mg/L (≈ 241 µM) | 62.5 mg/L (≈ 241 µM) | 125 mg/L (≈ 482 µM) | 62.5 mg/L (≈ 241 µM) | 489 mg/L (≈ 1890 µM) | 62.5 mg/L (≈ 241 µM) | 62.5 mg/L (≈ 241 µM) | 62.5 mg/L (≈ 241 µM) | 62.6 | 62.5 mg/L (≈ 241 µM) |  | 
5 | CN[C@H](CC(C)C)C(=O)N[C@H]1C(=O)N[C@@H](CC(N)=O)C(=O)N[C@H]2C(=O)N[C@H]3C(=O)N[C@H](C(=O)N[C@H](C(=O)O)c4cc(O)cc(O)c4-c4cc3ccc4O)[C@H](O)c3ccc(c(Cl)c3)Oc3cc2cc(c3O[C@@H]2O[C@H](CO)[C@@H](O)[C@H](O)[C@H]2O[C@H]2C[C@](C)(N)[C@H](O)[C@H](C)O2)Oc2ccc(cc2Cl)[C@H]1O [VANCOMYCIN] | 0.8 mg/L (≈ 0.552 µM) |  | 0.8 mg/L (≈ 0.552 µM) | 0.8 mg/L (≈ 0.552 µM) | 0.8 mg/L (≈ 0.552 µM) | 0.8 mg/L (≈ 0.552 µM) | 0.8 mg/L (≈ 0.552 µM) | 0.8 mg/L (≈ 0.552 µM) | 0.8 mg/L (≈ 0.552 µM) | 0.4 mg/L (≈ 0.276 µM) | 0.8 mg/L (≈ 0.552 µM) | 0.8 mg/L (≈ 0.552 µM) |  | 0.4 mg/L (≈ 0.276 µM) | 0.8 mg/L (≈ 0.552 µM) | 0.8 mg/L (≈ 0.552 µM) |  | 0.2 mg/L (≈ 0.138 µM) |  | 
6 | CC(C)=CCc1c(O)ccc(C(=O)/C=C/c2ccc(O)cc2)c1O [ISOBAVACHALCONE] | 125 mg/L (≈ 385 µM) | 31.2 mg/L (≈ 96.3 µM) | 125 mg/L (≈ 385 µM) | 15.6 mg/L (≈ 48.2 µM) | 62.5 mg/L (≈ 193 µM) | 62.5 mg/L (≈ 193 µM) | 62.5 mg/L (≈ 193 µM) | 62.5 mg/L (≈ 193 µM) | 62.5 mg/L (≈ 193 µM) | 62.5 mg/L (≈ 193 µM) | 125 mg/L (≈ 385 µM) | 125 mg/L (≈ 385 µM) | 727 mg/L (≈ 2240 µM) | 62.5 mg/L (≈ 193 µM) | 62.5 mg/L (≈ 193 µM) | 62.5 mg/L (≈ 193 µM) | 23.25 | 31.2 mg/L (≈ 96.3 µM) |  | 
7 | O=C(CCc1ccccc1O)c1ccccc1 | ≥ 1000 mg/L |  | ≥ 1000 mg/L | ≥ 1000 mg/L | ≥ 1000 mg/L | ≥ 1000 mg/L | ≥ 1000 mg/L | ≥ 1000 mg/L | ≥ 1000 mg/L | ≥ 1000 mg/L | ≥ 1000 mg/L | ≥ 1000 mg/L |  | ≥ 1000 mg/L | ≥ 1000 mg/L | ≥ 1000 mg/L |  | 500 mg/L (≈ 2210 µM) |  | 
8 | COc1cc(C(=O)N/N=C/c2ccc([N+](=O)[O-])s2)cc(OC)c1OC | 125 mg/L (≈ 342 µM) | 7.81 mg/L (≈ 21.4 µM) | 125 mg/L (≈ 342 µM) | 15.6 mg/L (≈ 42.8 µM) | 125 mg/L (≈ 342 µM) | 125 mg/L (≈ 342 µM) | 125 mg/L (≈ 342 µM) | 125 mg/L (≈ 342 µM) | 125 mg/L (≈ 342 µM) | 125 mg/L (≈ 342 µM) | 125 mg/L (≈ 342 µM) | 125 mg/L (≈ 342 µM) | 857 mg/L (≈ 2340 µM) | 125 mg/L (≈ 342 µM) | 125 mg/L (≈ 342 µM) | 125 mg/L (≈ 342 µM) | 109.7 | 15.6 mg/L (≈ 42.8 µM) |  | 
9 | COc1ccc(C(=O)/C=C/c2ccc(O)cc2)c(O)c1CC=C(C)C | ≥ 1000 mg/L |  | ≥ 1000 mg/L | ≥ 1000 mg/L | ≥ 1000 mg/L | ≥ 1000 mg/L | ≥ 1000 mg/L | ≥ 1000 mg/L | ≥ 1000 mg/L | ≥ 1000 mg/L | ≥ 1000 mg/L | ≥ 1000 mg/L |  | ≥ 1000 mg/L | ≥ 1000 mg/L | ≥ 1000 mg/L |  |  |  | 
10 | CO[C@@]1(NC(=O)Cc2cccs2)C(=O)N2C(C(=O)O)=C(COC(N)=O)CS[C@@H]21 [CEFOXITIN] |  |  |  |  |  |  |  |  |  |  |  |  |  |  |  |  |  |  | 33 mm | 22 mm
